Test results as given in patent publication US6413992B1, “3-(substituted pyridyl)-1,2,4-triazole compounds” (Dow AgroSciences LLC, priority 1998, dated 2002).

Row | Structure (SMILES) | melting point [°C]
1 | Cn1nc(-c2c(Cl)cncc2Cl)nc1C1(C)CC1(Cl)Cl (centres unmarked) [Compound 133, 3-(3,5 dichloro-4-pyridyl)-5-(2,2-dichloro-1-methylcyclopropyl)-1-methyl[1,2,4]triazole] | 79 to 83
2 | Cn1nc(-c2nc(Cl)ccc2Cl)nc1-c1ccc(Cl)cc1 [Compound 156] | 98 to 102
3 | Cn1nc(-c2c(Cl)cncc2Cl)nc1-c1ccncc1 [Compound 113] | 130 to 132
4 | Cn1nc(-c2c(Cl)cncc2Cl)nc1-c1ccc(Cl)cc1Cl [Compound 7] | 79 to 81
5 | Cn1nc(-c2nc(F)c(F)c(F)c2F)nc1-c1ccc(Cl)cc1 [Compound 155] | 154 to 156

Second part, the compound after the results:

Row | melting point [°C] | Structure (SMILES)
6 | 105 to 107 | Cn1nc(-c2ncc(Cl)cc2Cl)nc1-c1ccc(Cl)cc1 [Compound 158]
7 | 142 to 145 | Cc1nc(-c2c(Cl)cncc2Cl)nn1-c1ccc(Cl)cc1 [Example 19, 1-(4-Chlorophenyl)-5-methyl-3-(3,5-dichloro-4-pyridyl)-1H-1,2,4-triazole]
8 | 113 to 117 | Cc1ccc(-c2nc(-c3ncccc3Cl)nn2C)cc1 [Compound 159]
